Patent US10745814B2, “Enzymatic nucleic acid synthesis” (President and Fellows of Harvard College, priority 2016, dated 2020)

Biological target: TdT (Bos taurus, UniProt P06526)
Test: Screen of nucleotides and nucleotide analogues as substrates for TdT-based DNA synthesis
Format: biochemical
Conditions: for efficiency as substrates of TdT compared to natural counterparts: analogues more positively charged than natural counterparts; for behavior with respect to TdT-based DNA synthesis (extension efficiency, rate, and extension length distribution): natural nucleotides compared with each other
From the text: Nucleotide analogues may be used as substrates for enzymatic synthesis using TdT. In the general scheme of the presently disclosed methods, the distribution of extension length by TdT is important to ensure efficient and reliable encoding of information into DNA.
These analogues include, but are not limited to, 5-Aminoallyl-dUTP and 5-Propargylamino-dUTP.

TdT, sequence (P06526 whole entry): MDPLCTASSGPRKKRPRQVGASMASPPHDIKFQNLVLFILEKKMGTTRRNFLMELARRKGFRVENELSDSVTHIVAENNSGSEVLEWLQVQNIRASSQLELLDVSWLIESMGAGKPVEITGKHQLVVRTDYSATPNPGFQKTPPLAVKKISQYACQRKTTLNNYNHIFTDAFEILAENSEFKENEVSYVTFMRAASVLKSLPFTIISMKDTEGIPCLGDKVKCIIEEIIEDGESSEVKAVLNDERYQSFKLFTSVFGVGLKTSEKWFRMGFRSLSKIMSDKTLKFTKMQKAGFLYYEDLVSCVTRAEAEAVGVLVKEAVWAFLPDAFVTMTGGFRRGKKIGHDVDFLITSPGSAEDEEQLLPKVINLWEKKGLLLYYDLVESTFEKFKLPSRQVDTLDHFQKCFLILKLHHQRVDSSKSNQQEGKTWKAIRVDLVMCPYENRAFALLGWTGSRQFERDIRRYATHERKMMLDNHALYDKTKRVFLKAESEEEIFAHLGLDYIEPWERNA

SMILES	efficiency as substrates of TdT compared to natural counterparts	behavior with respect to TdT-based DNA synthesis (extension efficiency, rate, and extension length distribution)
Nc1ncnc2c1ncn2[C@H]1C[C@H](O)[C@@H](COP(=O)(O)OP(=O)(O)OP(=O)(O)O)O1 [dATP]		poorest behavior
Nc1ccn([C@H]2C[C@H](O)[C@@H](COP(=O)(O)OP(=O)(O)OP(=O)(O)O)O2)c(=O)n1 [dCTP]		most optimal behavior
Nc1nc2c(ncn2[C@H]2C[C@H](O)[C@@H](COP(=O)(O)OP(=O)(O)OP(=O)(O)O)O2)c(=O)[nH]1 [dGTP]		poorest behavior

More lines, now with the values ahead:

efficiency as substrates of TdT compared to natural counterparts	behavior with respect to TdT-based DNA synthesis (extension efficiency, rate, and extension length distribution)	SMILES
far more efficient substrates of TdT		NC/C=C/c1cn(C2CC(O)C(COP(=O)(O)OP(=O)(O)OP(=O)(O)O)O2)c(=O)[nH]c1=O (centres unmarked) [5-Aminoallyl-dUTP]
far more efficient substrates of TdT		NCC#Cc1cn(C2CC(O)C(COP(=O)(O)OP(=O)(O)OP(=O)(O)O)O2)c(=O)[nH]c1=O (centres unmarked) [5-Propargylamino-dUTP]
